Laboratory results taken from patent publication US7879611B2, “System for functional gene discovery in plants” (Agrigenetics Inc, priority 2000, dated 2011).

Legend:
[1] = tested on: wild-type cotyledons in Arabidopsis
Experimental: A salt tolerance screen is performed to identify and isolate gene(s) that confer salt (NaCl) tolerance in Arabidopsis.
A primary screen is conducted with T1 plants, using a germination assay. T1 seed is plated evenly in media supplemented with 250 mM NaCl. For negative and positive controls, wild type (Col-O) seed is plated in plates with and without, respectively, the supplemental NaCl. Plates are incubated for two days at 4° C., then transferred to a growth room and incubated an additional 7 to 14 days.
Salt tolerant germination is classified in five stages: 1) imbibation, emergence of radicle; 2) expansion and greening of cotyledons; 3) elongation of the hypocotyl; 4) elongation of the root and formation of root hairs; 5) development of true leaves.

[2] = tested on: wild type (Col-0) Arabidopsis; test: Copper tolerance germination assay; format: in vivo
Experimental: A screen for copper tolerance was developed in order to identify and isolate gene(s) whose altered expression confers copper tolerance and allows normal plant growth and development in the presence of an inhibitory level of copper. It has been experimentally determined that the lowest completely inhibitory concentration (LCI) of copper is 160 μM for hypocotyl and cotyledon expansion and the development of true leaves in wild type (Col-0) Arabidopsis.
For the primary screen, pooled T2 lines are plated on media supplemented with 160 μM CuSO4. Controls include wild type (Col-0 cand Shadara) plants germinating on plates with no copper and copper at the Col-0 LCI for germination. Plates are incubated 3 days at 4° C., then transferred to the growth room and incubated an additional 10 days.
Copper sensitivity is evaluated with germination assays, which are performed as described above for salt resistance screens.

| SMILES | concentration that completely abolishes expansion and green pigmentation of cotyledons [1] | concentration at which negative gravitropism of the hypocotyl is completely inhibited [2] | concentration at which root elongation is inhibited [2] | lowest completely inhibitory concentration (LCI) ([2]; hypocotyl and cotyledon expansion and development of true leaves) |
| --- | --- | --- | --- | --- |
| [Cl-].[Na+] [NaCl] | greater than 250 mM |  |  |  |
| O=S(=O)([O-])[O-].[Cu+2] [copper, CuSO4] |  | 50 µM | 100 µM | 160 µM |
